Assay results from patent US9199975B2, “Biaryl imidazole derivatives for regulating CYP17” (Asana Biosciences, LLC, priority 2011, dated 2015).

These compounds were tested against T1, human CYP17 (Homo sapiens, UniProt P05093) (assay: Cell-based human CYP17 inhibition assay, H295R adrenocortical carcinoma cells). Conditions: 16 hours at 37° C., read-out: CYP17 (human H295R adrenal cells).
T1 sequence (P05093 1-508): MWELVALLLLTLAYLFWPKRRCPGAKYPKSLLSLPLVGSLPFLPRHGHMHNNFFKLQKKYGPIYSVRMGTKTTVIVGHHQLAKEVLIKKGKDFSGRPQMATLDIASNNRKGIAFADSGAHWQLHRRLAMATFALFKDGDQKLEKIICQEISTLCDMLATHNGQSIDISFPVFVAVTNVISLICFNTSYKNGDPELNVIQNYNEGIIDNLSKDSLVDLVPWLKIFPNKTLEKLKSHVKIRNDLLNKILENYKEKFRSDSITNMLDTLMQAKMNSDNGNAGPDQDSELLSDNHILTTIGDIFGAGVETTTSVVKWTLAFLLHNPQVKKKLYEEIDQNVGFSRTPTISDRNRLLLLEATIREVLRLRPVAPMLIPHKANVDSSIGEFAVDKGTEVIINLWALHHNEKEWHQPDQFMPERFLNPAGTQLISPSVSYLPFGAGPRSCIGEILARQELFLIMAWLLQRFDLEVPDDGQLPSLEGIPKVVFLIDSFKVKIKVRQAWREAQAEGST
Set-up: H295R Adrenocortical carcinoma cells [NCI-H295A, ATCC Number CRL-2128, American Type Culture Collection; host or cells: H295R adrenocortical carcinoma cells
Method: Cell-Based Human CYP17 Inhibition Assay
A. Materials • 1. H295R Adrenocortical Carcinoma Cells and Growth Media: The media for the H295R Adrenocortical carcinoma cells [NCI-H295A, ATCC Number CRL-2128, American Type Culture Collection, Manassas, Va., US] (500 mL) was a DMEM:F12 Mix 1:1 with 5% […] BD Nu Serum; 1% (5 mL) ITS+Premix [BD Biosciences] and 1% Penstrep. • 2. LNCap-CYP17 Cells and Growth Media: Full length hCYP17a1 gene (NCBI Reference Sequence: NM_000102.3) was cloned in pCDNA3.1(+) vector between HindIII and XhoI site. The pCDNA3.1(+) vector contains the Neomycin resistance gene and was used for selection of stable cell line. The hCYP17a1 containing pCDNA3.1(+) was transfected into LNCap cells to create the LNCap-CYP17 cell line. The media for the LNCaP-CYP17 cells was RPMI 1640, 10% FBS, 1% PenStrep, Geneticin 400 μg/mL.
The H295R cells or LNCaP-hCYP17 cells were subcultured and 30,000 cells per well were seeded in a poly-d lysine plate and incubated overnight at 37° C. The next day the media was removed and 200 µL of fresh media with ^3H3-17α-hydroxy-pregnenolone (1:1000) was added. 50 μL of serially diluted compounds from a 5× plate (5 times the final desired concentration) was added. The working concentration range for active, new compounds started from a high concentration of […] with 3-fold serial dilutions generating up to 10 concentrations. The serial dilution in the 100× plate (in DMSO) and the stamping of a 5× plate (in media) from the 100× plate were carried out using a TECAN liquid handling device.
The plates were incubated overnight (16 hours) at 37° C. After 16 hours, the media was removed (approximately 220 μL) and an equal amount of chloroform was added, mixed and incubated for 30 minutes at 4 degrees. The plate was centrifuged at 4000 rpm for 15 minutes at 4° C., following which the top aqueous layer was carefully removed and added into a new deep well plate. An equal volume of activated 5% charcoal was added, mixed and incubated for 30 minutes at 4° C. The plate was then centrifuged at 4000 rpm for 15 minutes at 4° C. and the top layer carefully separated, avoiding any charcoal contamination, and placed in a white, clear bottom plate (plate cat #3610, Corning Life Sciences). An equal volume of Microscint™ 40 was added and mixed well. Following the incubation for 30 minutes, readings for the radiotracer were taken using a Microbeta® trilux.

| SMILES | IC50 |
| --- | --- |
| CC(c1ccc(-c2ccc(F)cc2)nc1)n1ccnc1 (stereo not shown) [Example 54, 2-(4-Fluoro-phenyl)-5-(1-imidazol-1-yl-ethyl)-pyridine] | 201 to 10000 nM |
| CCC(c1cnc(-c2ccc(OC)cc2)s1)n1ccnc1 (stereo not shown) [Example 35, 5-(1-Imidazol-1-yl-propyl)-2-(4-methoxy-phenyl)-thiazole] | 50 to 200 nM |
| CCC(c1ccc(-c2ccc(OC)cc2)s1)n1ccnc1 (stereo not shown) [Example 3, 1-(1-(5-(4-methoxyphenyl)thiophen-2-yl)propyl)-1H-imidazole] | < 50 nM |
| COc1ccc(-c2ccc(C(CC(C)C)n3ccnc3)s2)cc1 (stereo not shown) [Example 39, 1-{1-[5-(4-Methoxy-phenyl)-thiophen-2-yl]-3-methyl-butyl}-1H-imidazole] | < 50 nM |
| CC(c1cnc(-c2ccc(F)cc2F)s1)n1ccnc1 (stereo not shown) [Example 28, 2-(2,4-Difluoro-phenyl)-5-(1-imidazol-1-yl-ethyl)-thiazole] | < 50 nM |
| CCC(c1cnc(-c2ccc(O)cc2)s1)n1ccnc1 (stereo not shown) [Example 60, 4-[5-(1-Imidazol-1-yl-propyl)-thiazol-2-yl]-phenol] | 50 to 200 nM |
| CC(c1cnc(-c2ccc(=O)[nH]c2)s1)n1ccnc1 (stereo not shown) [Example 63, 5-[5-(1-Imidazol-1-yl-ethyl)-thiazol-2-yl]-1H-pyridin-2-one] | 201 to 10000 nM |
| CC(c1ccc(-c2ccccc2F)cn1)n1ccnc1 (stereo not shown) [Example 40, 5-(2-Fluoro-phenyl)-2-(1-imidazol-1-yl-ethyl)-pyridine] | 50 to 200 nM |
| CC(c1ccc(-c2ccc(F)cc2)cn1)n1ccnc1 (stereo not shown) [Example 34, 5-(4-Fluoro-phenyl)-2-(1-imidazol-1-yl-ethyl)-pyridine] | < 50 nM |
| CC(c1ccc(-c2ccoc2)cn1)n1ccnc1 (stereo not shown) [Example 13, 2-(1-(1H-imidazol-1-yl)ethyl)-5-(furan-3-yl)pyridine] | 201 to 10000 nM |
| CCC(c1cccc(-c2ccc(OC)cc2)n1)n1ccnc1 (stereo not shown) [Example 38, 2-(1-Imidazol-1-yl-propyl)-6-(4-methoxy-phenyl) pyridine] | 50 to 200 nM |
| CC(C)CC(c1ccc(-c2ccc(O)cc2)s1)n1ccnc1 (stereo not shown) [Example 23, 4-(5-(1-(1H-imidazol-1-yl)-3-methylbutyl)-thiophen-2-yl)phenol] | < 50 nM |
| CC(c1ccc(-c2ccc(F)cc2)cn1)n1ccnc1 (stereo not shown) [Example 12, 2-(1-(1H-imidazol-1-yl)ethyl)-5-(4-fluorophenyl)pyridine] | < 50 nM |
| CCC(c1ccc(-c2ccc(O)cc2)o1)n1ccnc1 (stereo not shown) [Example 30, 4-[5-(1-Imidazol-1-yl-propyl)-furan-2-yl]-phenol] | < 50 nM |
| COc1ccc(-c2cccnc2C(C)n2ccnc2)cc1 (stereo not shown) [Example 66, 2-(1-(1H-imidazol-1-yl)ethyl)-3-(4-methoxyphenyl)-pyridine] | < 50 nM |
| COc1ccc(-c2ccc(C(C)n3ccnc3)s2)cc1 (stereo not shown) [Example 36, 1-{1-[5-(4-Methoxy-phenyl)-thiophen-2-yl]-ethyl}-1H-imidazole] | < 50 nM |
| CC(c1cnc(-c2ccc(C#N)cc2)s1)n1ccnc1 (stereo not shown) [Example 22, 4-(5-(1-(1H-imidazol-1-yl)ethyl)thiazol-2-yl)benzonitrile] | 50 to 200 nM |
| CCOC(=O)c1ccc(-c2ncc(C(C)n3ccnc3)s2)cc1 (stereo not shown) [Example 55, 4-[5-(1-Imidazol-1-yl-ethyl)-thiazol-2-yl]-benzoic acid ethyl ester] | 50 to 200 nM |
| CCC(c1cnc(-c2ccc(F)cc2)s1)n1ccnc1 (stereo not shown) [Example 33, 2-(4-Fluoro-phenyl)-5-(1-imidazol-1-yl-propyl)-thiazole] | < 50 nM |
| CCC(c1ccc(-c2ccc(OC)cc2)o1)n1ccnc1 (stereo not shown) [Example 27, 1-{1-[5-(4-Methoxy-phenyl)-furan-2-y]-propyl}-1H-imidazole] | < 50 nM |
| CCC(c1cnc(-c2ccc(=O)[nH]c2)s1)n1ccnc1 (stereo not shown) [Example 59, 5-[5-(1-Imidazol-1-yl-propyl)-thiazol-2-yl]-1H-pyridin-2-one] | 201 to 10000 nM |
| COc1ccc(-c2ccc(C(C)(C)n3ccnc3)s2)cc1 [Example 24, 1-(2-(5-(4-methoxyphenyl)-thiophen-2-yl)-propan-2-yl)-1H-imidazole] | < 50 nM |
| CC(C)(c1ccc(-c2ccc(O)cc2)cn1)n1ccnc1 [Example 52, 4-[6-(1-Imidazol-1-yl-1-methyl-ethyl)-pyridin-3-yl]-phenol] | 50 to 200 nM |
| COc1ccc(-c2ccc(C(C)(C)n3ccnc3)nc2)cc1 [Example 61, 2-(1-Imidazol-1-yl-1-methyl-ethyl)-5-(4-methoxy-phenyl)-pyridine] | 50 to 200 nM |
| CC(=O)Nc1ccc(-c2ccc(C(C)n3ccnc3)nc2)cc1 (stereo not shown) [Example 64, N-{4-[6-(1-Imidazol-1-yl-ethyl)-pyridin-3-yl]-phenyl}-acetamide] | 201 to 10000 nM |
| CC(c1ccc(-c2ccc(O)cc2)s1)n1ccnc1 (stereo not shown) [Example 49, 4-[5-(1-Imidazol-1-yl-ethyl)-thiophen-2-yl]-phenol] | < 50 nM |

Second part, the compound after the results:

| IC50 | SMILES |
| --- | --- |
| 50 to 200 nM | CCC(c1ccc(-c2ccc(NC(C)=O)cc2)cn1)n1ccnc1 (stereo not shown) [Example 43, N-{4-[6-(1-Imidazol-1-yl-propyl)-pyridin-3-yl]-phenyl}-acetamide] |
| < 50 nM | CCC(c1ccc(-c2ccccc2F)cn1)n1ccnc1 (stereo not shown) [Example 48, 5-(2-Fluoro-phenyl)-2-(1-imidazol-1-yl-propyl)-pyridine] |
| 50 to 200 nM | CCC(c1ccc(-c2ccc(CO)cc2)cn1)n1ccnc1 (stereo not shown) [Example 41, {4-[6-(1-Imidazol-1-yl-propyl)-pyridin-3-yl]-phenyl}-methanol] |
| < 50 nM | CCC(c1ccc(-c2cccc(F)c2)cn1)n1ccnc1 (stereo not shown) [Example 45, 5-(3-Fluoro-phenyl)-2-(1-imidazol-1-yl-propyl)-pyridine] |
| 50 to 200 nM | CC(c1ccc(-c2ccc(O)cc2)cn1)n1ccnc1 (stereo not shown) [Example 16, 4-(6-(1-(1H-imidazol-1-yl)ethyl)pyridin-3-yl)phenol] |
| 50 to 200 nM | CC(c1ccc(-c2cccc(F)c2)cn1)n1ccnc1 (stereo not shown) [Example 57, 5-(3-Fluoro-phenyl)-2-(1-imidazol-1-yl-ethyl)-pyridine] |
| < 50 nM | CCC(c1ccc(-c2cccc(O)c2)cn1)n1ccnc1 (stereo not shown) [Example 8, 3-(6-(1-(1H-imidazol-1-yl)propyl)pyridin-3-yl)phenol] |
| 201 to 10000 nM | CCC(c1ccc(-c2ccc(C(N)=O)cc2)cn1)n1ccnc1 (stereo not shown) [Example 10, 4-(6-(1-(1H-imidazol-1-yl)propyl)pyridin-3-yl)benzamide] |
| 50 to 200 nM | CCC(c1ccc(-c2cccc(C#N)c2)cn1)n1ccnc1 (stereo not shown) [Example 53, 3-[6-(1-Imidazol-1-yl-propyl)-pyridin-3-yl]-benzonitrile] |
| 201 to 10000 nM | CCC(c1ccc(-c2ccccc2C#N)cn1)n1ccnc1 (stereo not shown) [Example 18, 2-(6-(1-(1H-imidazol-1-yl)propyl)pyridin-3-yl)benzonitrile] |
| 50 to 200 nM | CCC(c1ccc(-c2ccccc2OC)cn1)n1ccnc1 (stereo not shown) [Example 56, 2-(1-Imidazol-1-yl-propyl)-5-(2-methoxy-phenyl)-pyridine] |
| 50 to 200 nM | CCC(c1cnc(-c2cccc(F)c2)s1)n1ccnc1 (stereo not shown) [Example 1, 5-(1-(1H-imidazol-1-yl)propyl)-2-(3-fluorophenyl)thiazole] |
| 50 to 200 nM | CCC(c1ccc(-c2ccc(COCOC)cc2)cn1)n1ccnc1 (stereo not shown) [Example 11, 2-(1-(1H-imidazol-1-yl)propyl)-5-(4-((methoxymethoxy)methyl)-phenyl)pyridine] |
| 201 to 10000 nM | CC(c1ccc(-c2ccc(N)cc2)cn1)n1ccnc1 (stereo not shown) [Example 14, 4-(6-(1-(1H-imidazol-1-yl)ethyl)pyridin-3-yl)aniline] |
